According to ChEMBL document CHEMBL1777736, “New indole amide derivatives as potent CRTH2 receptor antagonists” (Bioorg Med Chem Lett, 2011):

Assays:
in vivo [1] = conditions: Sprague-Dawley, rat, po, 5 mg/kg
in vivo [2] = conditions: Sprague-Dawley, rat, iv, 1 mg/kg
in vivo [3] = conditions: Sprague-Dawley, rat, iv, 1 mg/kg; remark: listed apart in the source
in vivo [4] = conditions: Sprague-Dawley, rat

Row | bioavailability (in vivo [1]) | Vd (in vivo [2]) | clearance (in vivo [3]) | half-life (in vivo [4]) | SMILES
1 | 138% | 1.1 L/kg |  |  | CN([C@@H]1CCc2c(CC(=O)O)c3ccccc3n2C1)S(=O)(=O)c1ccc(F)cc1 [MK-7246]
2 | 73% | 0.36 L/kg | 1.1 mL/min/kg | 4.7 h | C[C@@H](C(=O)N(C)[C@@H]1CCc2c(CC(=O)O)c3ccccc3n2C1)c1ccc(F)cc1
